Laboratory results from article PMC6437697 (Journal of Medicinal Chemistry, 2019).

Experiments:
Assay in all cases: KINOMEscan
Format in all cases: binding
Conditions in all cases: read-out: % control activity remaining
[1] = biological target: T1, EGFR(L858R) (Homo sapiens, UniProt P00533, L858R)
T1 construct: purchased Eurofins DiscoverX KINOMEscan

[2] = biological target: T2, FLT3 (Homo sapiens, UniProt P36888)
T2 construct: purchased Eurofins DiscoverX KINOMEscan
T2 sequence (P36888 27-993): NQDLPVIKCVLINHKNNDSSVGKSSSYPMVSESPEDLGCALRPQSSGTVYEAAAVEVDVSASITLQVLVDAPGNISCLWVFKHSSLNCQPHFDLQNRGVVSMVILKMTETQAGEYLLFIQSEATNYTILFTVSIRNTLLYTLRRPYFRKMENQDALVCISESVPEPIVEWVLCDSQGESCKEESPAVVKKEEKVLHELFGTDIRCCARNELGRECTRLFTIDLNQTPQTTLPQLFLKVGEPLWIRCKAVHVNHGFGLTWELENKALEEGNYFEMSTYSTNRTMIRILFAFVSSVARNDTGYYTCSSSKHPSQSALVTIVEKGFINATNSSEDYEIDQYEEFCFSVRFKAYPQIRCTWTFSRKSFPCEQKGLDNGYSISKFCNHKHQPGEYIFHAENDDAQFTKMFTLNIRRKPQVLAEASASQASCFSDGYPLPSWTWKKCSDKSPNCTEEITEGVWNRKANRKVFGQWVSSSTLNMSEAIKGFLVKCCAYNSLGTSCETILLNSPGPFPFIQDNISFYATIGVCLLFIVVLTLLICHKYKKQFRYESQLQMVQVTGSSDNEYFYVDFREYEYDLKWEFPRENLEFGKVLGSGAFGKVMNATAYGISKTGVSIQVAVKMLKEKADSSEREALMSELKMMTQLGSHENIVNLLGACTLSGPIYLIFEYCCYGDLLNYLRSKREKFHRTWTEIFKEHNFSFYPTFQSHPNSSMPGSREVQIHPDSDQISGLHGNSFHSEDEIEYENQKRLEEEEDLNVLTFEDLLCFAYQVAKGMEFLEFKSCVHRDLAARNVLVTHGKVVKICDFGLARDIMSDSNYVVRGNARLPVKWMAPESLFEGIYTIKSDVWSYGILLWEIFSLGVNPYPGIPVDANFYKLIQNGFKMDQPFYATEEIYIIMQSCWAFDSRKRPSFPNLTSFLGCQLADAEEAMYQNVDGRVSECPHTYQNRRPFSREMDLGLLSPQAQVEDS

[3] = biological target: T3, IKK-alpha (Homo sapiens, UniProt O15111)
T3 construct: purchased Eurofins DiscoverX KINOMEscan
T3 sequence (O15111 1-745): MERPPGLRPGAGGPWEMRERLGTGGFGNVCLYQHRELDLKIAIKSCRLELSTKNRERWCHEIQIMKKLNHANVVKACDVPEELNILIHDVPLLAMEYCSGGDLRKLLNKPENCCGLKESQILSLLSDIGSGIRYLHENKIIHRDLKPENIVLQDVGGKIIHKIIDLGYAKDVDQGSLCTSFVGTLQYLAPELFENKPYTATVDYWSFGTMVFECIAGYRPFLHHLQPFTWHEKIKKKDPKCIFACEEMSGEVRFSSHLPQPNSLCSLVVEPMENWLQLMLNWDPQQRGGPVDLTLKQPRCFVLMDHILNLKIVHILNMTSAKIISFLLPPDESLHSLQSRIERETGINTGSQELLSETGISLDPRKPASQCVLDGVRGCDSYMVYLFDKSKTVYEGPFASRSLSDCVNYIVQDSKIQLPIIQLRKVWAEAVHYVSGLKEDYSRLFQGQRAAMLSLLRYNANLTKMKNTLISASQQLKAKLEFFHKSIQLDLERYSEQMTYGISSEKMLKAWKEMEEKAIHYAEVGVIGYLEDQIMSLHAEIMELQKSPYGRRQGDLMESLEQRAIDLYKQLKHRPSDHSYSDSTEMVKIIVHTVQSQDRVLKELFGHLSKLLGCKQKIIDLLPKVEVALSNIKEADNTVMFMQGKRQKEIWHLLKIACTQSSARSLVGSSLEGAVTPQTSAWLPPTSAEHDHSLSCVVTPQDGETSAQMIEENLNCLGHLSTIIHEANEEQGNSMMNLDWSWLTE

[4] = biological target: T4, MYLK2 (Homo sapiens, UniProt Q9H1R3)
T4 construct: purchased Eurofins DiscoverX KINOMEscan

[5] = biological target: T5, RSK3(Kin.Dom.2-C-terminal) (Homo sapiens, UniProt Q15349)
T5 construct: RSK3(Kin.Dom.2-C-terminal); purchased Eurofins DiscoverX KINOMEscan

[6] = biological target: T6, SgK110 (Homo sapiens, UniProt P0C264)
T6 construct: purchased Eurofins DiscoverX KINOMEscan
T6 sequence (P0C264 1-359): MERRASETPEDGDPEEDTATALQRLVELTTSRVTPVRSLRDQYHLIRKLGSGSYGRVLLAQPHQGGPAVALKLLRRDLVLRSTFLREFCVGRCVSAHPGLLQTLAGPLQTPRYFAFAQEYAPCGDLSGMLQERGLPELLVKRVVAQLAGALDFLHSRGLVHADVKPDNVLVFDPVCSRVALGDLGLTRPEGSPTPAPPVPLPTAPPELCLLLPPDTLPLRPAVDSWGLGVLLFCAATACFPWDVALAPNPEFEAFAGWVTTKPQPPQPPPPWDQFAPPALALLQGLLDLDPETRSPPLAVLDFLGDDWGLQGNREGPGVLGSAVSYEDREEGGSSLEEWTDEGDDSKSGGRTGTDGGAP

[7] = biological target: T7, TNK1 (Homo sapiens, UniProt Q13470)
T7 construct: purchased Eurofins DiscoverX KINOMEscan
T7 sequence (Q13470 1-666): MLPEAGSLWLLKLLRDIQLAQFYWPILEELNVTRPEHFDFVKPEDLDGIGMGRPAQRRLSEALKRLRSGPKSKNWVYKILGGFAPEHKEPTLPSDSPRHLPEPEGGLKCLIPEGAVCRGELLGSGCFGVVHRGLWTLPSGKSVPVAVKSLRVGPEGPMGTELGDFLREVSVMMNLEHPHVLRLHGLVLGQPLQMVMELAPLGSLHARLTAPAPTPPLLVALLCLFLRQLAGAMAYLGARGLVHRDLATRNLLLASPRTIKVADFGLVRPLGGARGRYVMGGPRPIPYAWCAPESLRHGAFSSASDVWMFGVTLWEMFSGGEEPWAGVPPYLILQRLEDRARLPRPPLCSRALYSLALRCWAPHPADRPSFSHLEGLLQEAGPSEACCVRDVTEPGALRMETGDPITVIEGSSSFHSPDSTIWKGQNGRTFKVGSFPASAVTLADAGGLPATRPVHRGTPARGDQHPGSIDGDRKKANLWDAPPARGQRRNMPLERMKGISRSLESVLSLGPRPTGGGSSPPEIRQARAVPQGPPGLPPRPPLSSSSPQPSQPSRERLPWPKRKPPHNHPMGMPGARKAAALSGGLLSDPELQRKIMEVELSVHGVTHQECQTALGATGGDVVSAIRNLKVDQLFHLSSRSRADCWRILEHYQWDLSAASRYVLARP

T5 sequence (Q15349 415-672 limits assumed): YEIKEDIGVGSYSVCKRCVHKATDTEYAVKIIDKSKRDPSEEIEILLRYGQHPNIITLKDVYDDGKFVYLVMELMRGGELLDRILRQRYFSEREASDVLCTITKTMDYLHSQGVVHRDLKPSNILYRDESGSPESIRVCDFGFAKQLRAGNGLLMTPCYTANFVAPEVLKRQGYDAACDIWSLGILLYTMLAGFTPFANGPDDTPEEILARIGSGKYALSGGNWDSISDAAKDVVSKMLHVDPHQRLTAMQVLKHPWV
T1 sequence (P00533 25-1210 L858R limits assumed): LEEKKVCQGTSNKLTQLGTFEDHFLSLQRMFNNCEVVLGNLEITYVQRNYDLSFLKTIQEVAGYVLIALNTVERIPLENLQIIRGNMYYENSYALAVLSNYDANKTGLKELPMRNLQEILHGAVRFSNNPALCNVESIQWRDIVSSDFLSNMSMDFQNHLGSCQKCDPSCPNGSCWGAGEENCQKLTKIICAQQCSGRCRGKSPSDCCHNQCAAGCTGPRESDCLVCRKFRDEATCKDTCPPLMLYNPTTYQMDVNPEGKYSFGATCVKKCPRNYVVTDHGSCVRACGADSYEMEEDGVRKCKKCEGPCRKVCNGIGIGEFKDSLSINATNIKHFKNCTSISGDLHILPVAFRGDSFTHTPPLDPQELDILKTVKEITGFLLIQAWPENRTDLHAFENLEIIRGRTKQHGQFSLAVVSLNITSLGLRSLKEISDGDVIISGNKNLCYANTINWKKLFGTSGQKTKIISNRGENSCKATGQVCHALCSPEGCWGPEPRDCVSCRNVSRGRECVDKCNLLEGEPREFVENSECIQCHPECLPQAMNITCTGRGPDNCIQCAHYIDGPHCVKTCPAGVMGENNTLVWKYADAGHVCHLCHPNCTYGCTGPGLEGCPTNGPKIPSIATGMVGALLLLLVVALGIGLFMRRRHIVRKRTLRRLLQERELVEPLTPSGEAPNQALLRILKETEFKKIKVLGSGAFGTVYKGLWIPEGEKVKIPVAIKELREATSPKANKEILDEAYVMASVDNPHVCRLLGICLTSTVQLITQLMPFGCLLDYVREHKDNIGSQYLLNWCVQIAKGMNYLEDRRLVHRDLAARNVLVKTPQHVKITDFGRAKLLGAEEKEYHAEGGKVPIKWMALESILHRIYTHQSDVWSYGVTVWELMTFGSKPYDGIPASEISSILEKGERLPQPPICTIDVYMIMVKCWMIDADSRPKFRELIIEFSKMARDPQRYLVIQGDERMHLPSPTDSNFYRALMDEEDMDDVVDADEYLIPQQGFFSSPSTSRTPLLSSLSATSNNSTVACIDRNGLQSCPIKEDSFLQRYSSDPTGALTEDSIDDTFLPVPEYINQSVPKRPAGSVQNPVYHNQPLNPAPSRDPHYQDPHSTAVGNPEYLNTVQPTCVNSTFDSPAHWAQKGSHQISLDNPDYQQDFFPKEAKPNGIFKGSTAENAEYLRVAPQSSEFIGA
T4 sequence (Q9H1R3 whole entry): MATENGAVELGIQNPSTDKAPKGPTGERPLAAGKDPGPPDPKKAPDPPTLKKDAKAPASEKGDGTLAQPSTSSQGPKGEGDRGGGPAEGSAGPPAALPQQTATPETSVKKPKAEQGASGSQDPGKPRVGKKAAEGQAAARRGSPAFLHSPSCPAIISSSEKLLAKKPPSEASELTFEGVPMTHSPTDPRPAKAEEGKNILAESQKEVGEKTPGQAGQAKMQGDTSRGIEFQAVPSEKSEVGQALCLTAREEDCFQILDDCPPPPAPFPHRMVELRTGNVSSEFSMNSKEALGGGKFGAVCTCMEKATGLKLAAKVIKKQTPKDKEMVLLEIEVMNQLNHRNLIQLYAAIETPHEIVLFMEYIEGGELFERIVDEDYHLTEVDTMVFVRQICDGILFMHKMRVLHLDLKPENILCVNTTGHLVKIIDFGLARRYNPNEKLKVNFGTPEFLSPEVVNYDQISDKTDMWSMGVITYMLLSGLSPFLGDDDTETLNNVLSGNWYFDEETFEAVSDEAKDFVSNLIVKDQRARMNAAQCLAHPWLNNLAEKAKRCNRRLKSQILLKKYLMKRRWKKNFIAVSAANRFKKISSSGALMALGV

SMILES	remaining binding at 1 µM [1]	remaining binding at 1 µM [2]	remaining binding at 1 µM [3]	remaining binding at 1 µM [4]	remaining binding at 1 µM [5]	remaining binding at 1 µM [6]	remaining binding at 1 µM [7]
CN1CCC(CNc2cc(Cl)nn3c(-c4cc5nc(Nc6ccccc6)[nH]c5cc4F)cnc23)CC1 [compound 31, 6-Chloro-3-(6-fluoro-2-(phenylamino)-1H-benzo[d]imidazol-5-yl)-N-((1-methylpiperidin-4-yl)methyl)imidazo[1,2-b]pyridazin-8-amine]	100%	83%	90%	89%	80%	100%	100%
O=C(CN1CCOCC1)N[C@H]1CC[C@H](Nc2cc(Cl)nn3c(-c4ccc5[nH]ncc5c4)cnc23)CC1 [compound 26]	83%	3%	100%	52%	94%	100%	100%
Clc1cc(NCC2CC2)c2ncc(-c3ccc4[nH]ncc4c3)n2n1 [compound 2, 6-Chloro-N-(cyclopropylmethyl)-3-(1H-indazol-5-yl)imidazo[1,2-b]pyridazin-8-amine]	68%	2.5%	76%	82%	100%	100%	69%
